Data taken from ChEMBL document CHEMBL5247641, “Discovery of Potent DYRK2 Inhibitors with High Selectivity, Great Solubility, and Excellent Safety Properties for the Treatment of Prostate Cancer” (J Med Chem, 2023).
Activity calls are given as the source filed them. The calls are words filed in the database; no cut-off is given here.

Columns and labels:
DU-145 [1] = assay: Induction of cell cycle arrest in human DU-145 cells assessed as accumulation of cells at G2 phase at 2 uM incubated for 24 hrs by propidium iodide based flow cytometric analysis (Rvb= 17.52%); type: functional
DU-145 [2] = assay: Antiproliferative activity against human DU-145 cells assessed as inhibition of cell proliferation incubated for 3 days by CCK-8 assay; type: functional, cell-based; conditions: DU-145, 72 h
CWR22R [3] = assay: Antiproliferative activity against human 22Rv1 cells assessed as cell growth inhibition at 2 to 8 uM incubated for 5 days by microplate reader analysis; type: functional, cell-based; conditions: dose 2-8 µM, time 5.0 day
CWR22R [4] = assay: Antiproliferative activity against human 22Rv1 cells assessed as inhibition of clone formation at 1 to 8 uM incubated for 2 weeks by crystal violet staining based assay; type: functional, cell-based; conditions: dose 1-8 µM
DU-145 [5] = assay: Antimigratory activity against human DU-145 cells assessed as inhibition of cell migration at 1 to 8 uM incubated for 24 hrs by transwell migration assay; type: functional, cell-based; conditions: dose 1-8 µM
CWR22R [6] = assay: Antimigratory activity against human 22Rv1 cells assessed as inhibition of cell migration at 1 to 8 uM incubated for 24 hrs by transwell migration assay; type: functional, cell-based; conditions: dose 1-8 µM
DU-145 [7] = assay: Induction of cell cycle arrest in human DU-145 cells assessed as accumulation of cells at S phase at 1 uM incubated for 24 hrs by propidium iodide based flow cytometric analysis (Rvb= 29.02%); type: functional
DU-145 [8] = assay: Induction of cell cycle arrest in human DU-145 cells assessed as accumulation of cells at S phase at 2 uM incubated for 24 hrs by propidium iodide based flow cytometric analysis (Rvb= 29.02%); type: functional
DU-145 [9] = assay: Induction of cell cycle arrest in human DU-145 cells assessed as accumulation of cells at G2 phase at 1 uM incubated for 24 hrs by propidium iodide based flow cytometric analysis (Rvb= 17.52%); type: functional
CWR22R [10] = assay: Induction of cell cycle arrest in human 22Rv1 cells assessed as accumulation of cells at G1 phase at 2 uM incubated for 24 hrs by propidium iodide based flow cytometric analysis (Rvb= 55.28%); type: functional
CWR22R [11] = assay: Induction of cell cycle arrest in human 22Rv1 cells assessed as accumulation of cells at S phase at 2 uM incubated for 24 hrs by propidium iodide based flow cytometric analysis (Rvb=20.51 %); type: functional
CWR22R [12] = assay: Induction of cell cycle arrest in human 22Rv1 cells assessed as accumulation of cells at G2 phase at 1 uM incubated for 24 hrs by propidium iodide based flow cytometric analysis (Rvb=24.21 %); type: functional
CWR22R [13] = assay: Induction of cell cycle arrest in human 22Rv1 cells assessed as accumulation of cells at G2 phase at 2 uM incubated for 24 hrs by propidium iodide based flow cytometric analysis (Rvb=24.21 %); type: functional
DU-145 [14] = assay: Induction of apoptosis in human DU-145 cells assessed as apoptotis rate at 4 uM incubated for 24 hrs by Annexin V-FITC and PI staining based flow cytometry (Rvb= 4.36%); type: functional
DU-145 [15] = assay: Induction of apoptosis in human DU-145 cells assessed as apoptotis rate at 8 uM incubated for 24 hrs by Annexin V-FITC and PI staining based flow cytometry (Rvb= 4.36%); type: functional
[16] = target: T1, Dual specificity tyrosine-phosphorylation-regulated kinase 2 (Homo sapiens) (UniProt Q92630); assay: Inhibition of DYRK2 in human 22Rv1 cells assessed as reduction in 4E-BP1 phosphorylation at 2 to 8 uM incubated for 24 hrs by Western blot analysis; type: cell-based; conditions: dose 2-8 µM
T1 sequence (whole entry): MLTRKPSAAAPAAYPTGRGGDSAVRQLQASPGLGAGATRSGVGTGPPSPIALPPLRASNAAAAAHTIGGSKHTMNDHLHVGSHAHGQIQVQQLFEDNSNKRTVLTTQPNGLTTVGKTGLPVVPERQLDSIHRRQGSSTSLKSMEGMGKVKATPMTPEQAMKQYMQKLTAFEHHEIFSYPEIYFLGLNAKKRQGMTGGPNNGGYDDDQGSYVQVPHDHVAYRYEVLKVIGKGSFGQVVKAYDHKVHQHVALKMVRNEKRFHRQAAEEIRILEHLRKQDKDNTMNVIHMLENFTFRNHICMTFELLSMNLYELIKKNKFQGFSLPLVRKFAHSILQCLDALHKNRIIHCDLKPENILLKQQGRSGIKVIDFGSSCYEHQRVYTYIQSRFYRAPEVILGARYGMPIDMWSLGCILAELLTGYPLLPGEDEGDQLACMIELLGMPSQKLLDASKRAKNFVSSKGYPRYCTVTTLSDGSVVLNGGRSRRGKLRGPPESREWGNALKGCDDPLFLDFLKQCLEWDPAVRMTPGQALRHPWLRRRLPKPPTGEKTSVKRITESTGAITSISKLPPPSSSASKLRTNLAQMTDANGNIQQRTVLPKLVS

CWR22R [17] = assay: Antiproliferative activity against human 22Rv1 cells assessed as increase in p27 expression level at 2 to 8 uM incubated for 24 hrs by Western blot analysis; type: functional, cell-based; conditions: dose 2-8 µM
DU-145 [18] = assay: Induction of apoptosis in human DU-145 cells assessed as increase in cleaved PARP level at 2 to 8 uM incubated for 24 hrs by Western blot analysis; type: functional, cell-based; conditions: dose 2-8 µM
DU-145 [19] = assay: Induction of apoptosis in human DU-145 cells assessed as increase in p53 level at 2 to 8 uM incubated for 24 hrs by Western blot analysis; type: functional, cell-based; conditions: dose 2-8 µM
[20] = Thermodynamic water solubility of compound by HPLC anlaysis; type: physicochemical; conditions: read-out: Therm_solubility
[21] = Metabolic stability in human liver microsomes assessed as half life in presence of NADPH incubated up to 60 mins by LC-MS/MS analysis; type: ADME, Microsome
[22] = Acute toxicity in ICR mouse assessed as change in lung weight at 1000 to 10000 mg/kg,po and measured after 14 days; type: organism-based; conditions: in vivo, 336 h, dose 1000-10000 mg/kg, time 14 day
[23] = Acute toxicity in ICR mouse assessed as appearance of lesions in heart at 5000 to 10000 mg/kg,po and measured after 14 days by H and E staining based microscopic analysis; type: organism-based; conditions: in vivo, 336 h, dose 5000-10000 mg/kg, time 14 day
[24] = Acute toxicity in ICR mouse assessed as appearance of lesions in lung at 5000 to 10000 mg/kg,po and measured after 14 days by H and E staining based microscopic analysis; type: organism-based; conditions: in vivo, 336 h, dose 5000-10000 mg/kg, time 14 day
[25] = Acute toxicity in ICR mouse assessed as appearance of lesions in kidney at 5000 to 10000 mg/kg,po and measured after 14 days by H and E staining based microscopic analysis; type: organism-based; conditions: in vivo, 336 h, dose 5000-10000 mg/kg, time 14 day
DU-145 [26] = assay: Antitumor activity against human DU-145 xenografted in BALB/c nude mouse assessed as tumor growth inhibition at 200 mg/kg,po administrated once daily for 21 days; type: functional, organism-based; conditions: time 21.0 day
[27] = Toxicity in BALB/c nude mouse xenografted with human DU-145 assessed as body weight change at 100 to 200 mg/kg,po qd administrated once daily for 21 days; type: organism-based; conditions: in vivo, 504 h, dose 100-200 mg/kg, time 21 day
DU-145 [28] = assay: Antitumor activity against human DU-145 xenografted in BALB/c nude mouse as upregulation of E-cadherin level in tumor at 100 to 200 mg/kg,po administrated once daily for 21 days by Western blot analysis; type: functional, organism-based; conditions: dose 100-200 mg/kg, time 21.0 day

Compound: Cl.O=C(c1ccc(Nc2ncc(F)c(-c3ccc4scnc4c3)n2)nc1)N1CCNCC1
- Activity (DU-145 [1]): 12.78%
- IC50 (DU-145 [2]): 1.26 µM
- Activity (CWR22R [3]): Active
- Activity (CWR22R [4]): Active
- Activity (DU-145 [5]): Active
- Activity (CWR22R [6]): Active
- Activity (DU-145 [7]): 28.05%
- Activity (DU-145 [8]): 26.15%
- Activity (DU-145 [9]): 17.18%
- Activity (CWR22R [10]): 62.88%
- Activity (CWR22R [11]): 14.24%
- Activity (CWR22R [12]): 23.01%
- Activity (CWR22R [13]): 22.88%
- Activity (DU-145 [14]): 7.86%
- Activity (DU-145 [15]): 11.98%
- inhibition [16]: Active
- Activity (CWR22R [17]): Active
- Activity (DU-145 [18]): Active
- Activity (DU-145 [19]): Active
- solubility thermodynamic [20]: 29.5 mg/mL
- half-life [21]: 1.3 h
- Activity [22]: Non-Toxic
- Activity [23]: Non-Toxic
- Activity [24]: Non-Toxic
- Activity [25]: Non-Toxic
- Activity (DU-145 [26]): Active
- Activity [27]: Non-Toxic
- Activity (DU-145 [28]): Active
